Assay results: US20250066344A1 (BRISTOL-MYERS SQUIBB COMPANY, priority 2021, published 2025)

Biological target: T1, human RXFP1 (Homo sapiens, UniProt Q9HBX9)
T1 construct: expressed in transfected cells
T1 sequence (Q9HBX9 1-757): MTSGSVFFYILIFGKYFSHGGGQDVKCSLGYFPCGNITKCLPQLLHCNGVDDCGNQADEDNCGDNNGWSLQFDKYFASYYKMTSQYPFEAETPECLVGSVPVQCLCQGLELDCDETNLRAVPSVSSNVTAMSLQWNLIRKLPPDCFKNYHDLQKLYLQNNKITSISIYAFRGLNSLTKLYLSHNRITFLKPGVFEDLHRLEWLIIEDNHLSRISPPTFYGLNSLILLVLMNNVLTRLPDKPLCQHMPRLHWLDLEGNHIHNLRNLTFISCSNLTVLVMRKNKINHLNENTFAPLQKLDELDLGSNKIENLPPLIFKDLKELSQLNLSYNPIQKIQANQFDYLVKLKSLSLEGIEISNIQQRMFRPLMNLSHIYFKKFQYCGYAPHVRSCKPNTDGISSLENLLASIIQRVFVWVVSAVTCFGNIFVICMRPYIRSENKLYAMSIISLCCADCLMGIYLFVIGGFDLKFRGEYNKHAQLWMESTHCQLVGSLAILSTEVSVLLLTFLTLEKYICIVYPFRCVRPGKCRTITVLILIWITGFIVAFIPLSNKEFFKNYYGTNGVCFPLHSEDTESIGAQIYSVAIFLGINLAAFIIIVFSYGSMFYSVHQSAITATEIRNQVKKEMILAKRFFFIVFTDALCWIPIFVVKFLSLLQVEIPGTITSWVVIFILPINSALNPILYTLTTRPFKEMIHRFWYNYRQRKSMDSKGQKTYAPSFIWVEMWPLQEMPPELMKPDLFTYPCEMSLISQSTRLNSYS
Assay: RXFP1 cyclic adenosine monophosphate (cAMP) assay, hRXFP1 HEK293
Type: cell-based
Conditions: HEK293 cells stably expressing human RXFP1; 30 min at room temperature; HTRF cAMP
How it was run: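 HEK293 cells stably expressing human RXFP1 were exposed to compounds (0.010 nM–50 μM, 2% DMSO) for 30 min at room temperature in HBSS/HEPES buffer with 0.5 mM IBMX. Intracellular cAMP was measured by HTRF against a cAMP standard curve; EC50 from 4-parameter logistic fit.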

Compound | EC50
COc1ccc(C2=NOC3CC(N)CC23)cc1C(=O)Nc1cc2c(cc1C(=O)Nc1ccc(F)c(C(F)(F)F)c1)OC(F)(F)O2 (single isomer, unassigned) [Example 50, 6-(5-(5-amino-3a,5,6,6a-tetrahydro-4H-cyclopenta[d]isoxazol-3-yl)-2-methoxybenzamido)-2,2-difluoro-N-(4-fluoro-3-(trifluoromethyl)phenyl)benzo[d][1,3]dioxole-5-carboxamide] | 0.098 µM
COc1ccc(C2=NOC3(C2)CN(C(=O)CO)C3)cc1C(=O)Nc1cc2c(cc1C(=O)Nc1ccc(F)c(C(F)(F)F)c1)OC(F)(F)O2 [Example 75, 2,2-difluoro-N-(4-fluoro-3-(trifluoromethyl)phenyl)-6-(5-(2-(2-hydroxyacetyl)-5-oxa-2,6-diazaspiro[3.4]oct-6-en-7-yl)-2-methoxybenzamido) benzo[d][1,3]dioxole-5-carboxamide] | 0.231 µM
COc1ccc(C2=NOC3C4CC(C(=O)N4)C23)cc1C(=O)Nc1cc2nc(C)sc2cc1C(=O)Nc1ccc(F)c(C(F)(F)F)c1 (stereo not drawn) [Example 15, N-(4-fluoro-3-(trifluoro-methyl)phen-yl)-5-(2-meth-oxy-5-(5-oxo-3a,4,5,6,7,7a-hexahydro-4,7-methano-isoxazolo[5,4-c]pyridin-3-yl)benzami-do)-2-methyl-benzo[d]thi-azole-6-car-boxamide] | 0.18 µM
COc1ccc(-c2cc([C@H](OC(=O)NC3CCC3)C(F)(F)F)ccc2F)cc1C(=O)Nc1cc2c(C)noc2cc1C(=O)Nc1ccc(F)c(C(F)(F)F)c1 [Example 32, (S)-2,2,2-trifluoro-1-(6-fluoro-3′-((6-((4-fluoro-3-(trifluoromethyl)phenyl)carbamoyl)-3-methylbenzo[d]isoxazol-5-yl)carbamoy])-4-methoxy-[1,1′-biphenyl]-3-yl)ethyl cyclobutylcarbamate] | 0.018 µM
COc1ccc(C#CC(C)(C)O)cc1C(=O)Nc1cc2c(cc1C(=O)Nc1ccc(F)c(C(F)(F)F)c1)OC(F)(F)O2 [Example 58, 2,2-difluoro-N-(4-fluoro-3-(trifluoromethyl)phenyl)-6-(5-(3-hydroxy-3-methylbut-1-yn-1-yl)-2-methoxybenzamido) benzo[d][1,3]dioxole-5-carboxamide] | 1.06 µM
COc1cc(F)c(C2=NOC3CC(CO)CC23)cc1C(=O)Nc1cc2c(cc1C(=O)Nc1ccc(F)c(C(F)(F)F)c1)OC(F)(F)O2 (stereo not drawn) [Example 102, 2,2-difluoro-N-(4-fluoro-3-(trifluoromethyl)phenyl)-6-(4-fluoro-5-(5-(hydroxymethyl)-3a,5,6,6a-tetrahydro-4H-cyclopenta[d]isoxazol-3-yl)-2-methoxybenzamido) benzo[d][1,3]dioxole-5-carboxamide] | 0.0106 µM
COc1ccc(-c2noc(C(C)(C)O)n2)cc1C(=O)Nc1cc2c(cc1C(=O)Nc1ccc(F)c(C(F)(F)F)c1)OC(F)(F)O2 [Example 84, 2,2-difluoro-N-(4-fluoro-3-(trifluoromethyl)phenyl)-6-(5-(5-(2-hydroxypropan-2-yl)-1,2,4-oxadiazol-3-yl)-2-methoxybenzamido) benzo[d][1,3]dioxole-5-carboxamide] | 0.485 µM
COc1ccc(C2=NOC3COCC23)cc1C(=O)Nc1cc2c(cc1C(=O)Nc1ccc(F)c(C(F)(F)F)c1)OC(F)(F)O2 (stereo not drawn) [Example 79] | 0.275 µM
COc1ccc(-c2cc([C@H](C)O)on2)cc1C(=O)Nc1cc2c(cc1C(=O)Nc1ccc(F)c(C(F)(F)F)c1)OC(F)(F)O2 [Example 73, (S)-2,2-difluoro-N-(4-fluoro-3-(trifluoromethyl)phenyl)-6-(5-(5-(1-hydroxyethyl)isoxazol-3-yl)-2-methoxybenzamido) benzo[d][1,3]dioxole-5-carboxamide] | 0.096 µM
COc1ccc(C2=NOC3COCC23)cc1C(=O)Nc1cc2nc(C)sc2cc1C(=O)NC1CCCC1 (stereo not drawn) [Example 29, N-cyclopentyl-5-(2-methoxy-5-(3a,4,6,6a-tetrahydrofuro [3,4-d]isox-azol-3-yl)-benzamido)-2-methylbenzo [d]thiazole-6-carboxamide] | 2.7 µM
COc1ccc(C2=NOC3C(O)CC(O)C23)cc1C(=O)Nc1cc2nc(C)sc2cc1C(=O)Nc1ccc(F)c(C(F)(F)F)c1 (stereo not drawn) [Example 7, 5-(5-(4,6-dihydroxy-3a,5,6,6a-tetra-hydro-4H-cyclopenta[d]isoxazol-3-yl)-2-methoxy-benzamido)-N-(4-fluoro-3-(trifluorometh-yl)phenyl)-2-methylbenzo [d]thiazole-6-carboxamide] | 0.031 µM
COc1ccc(C2=NOC3CS(=O)(=O)CC23)cc1C(=O)Nc1cc2c(cc1C(=O)Nc1ccc(F)c(C(F)(F)F)c1)OC(F)(F)O2 (stereo not drawn) [Example 65, 6-(5-(5,5-dioxido-3a,4,6,6a-tetrahydrothieno[3,4-d]isoxazol-3-yl)-2-methoxybenzamido)-2,2-difluoro-N-(4-fluoro-3-(trifluoromethyl)phenyl) benzo[d][1,3]dioxole-5-carboxamide] | 0.285 µM
COc1ccc(S(=O)(=O)N2CCOC[C@@H]2CO)cc1C(=O)Nc1cc2nc(C)sc2cc1C(=O)Nc1ccc(F)c(C(F)(F)F)c1 [Example 14, (S)-N-(4-fluoro-3-(tri-fluoromethyl)-phenyl)-5-(5-((3-(hydroxy-methyl)morph-olino)sulfon-yl)-2-methoxy-benzamido)-2-methylbenzo [d]thiazole-6-carboxamide] | 1.4 µM
COc1ccc(-c2ccc3c(c2)CCNC3)cc1C(=O)Nc1cc2c(cc1C(=O)Nc1ccc(F)c(C(F)(F)F)c1)OC(F)(F)O2 [Example 93, 2,2-difluoro-N-(4-fluoro-3-(trifluoromethyl)phenyl)-6-(2-methoxy-5-(1,2,3,4-tetrahydroisoquinolin-6-yl)benzamido)benzo[d] [1,3]dioxole-5-carboxamide] | 1.09 µM

The remaining compounds from weak to strong by EC50, led by results:

EC50 | Compound
0.309 µM | COc1ccc(C2=NOC3(CCNCC3)C2)cc1C(=O)Nc1cc2c(cc1C(=O)Nc1ccc(F)c(C(F)(F)F)c1)OC(F)(F)O2 [Example 67, 2,2-difluoro-N-(4-fluoro-3-(trifluoromethyl)phenyl)-6-(2-methoxy-5-(1-oxa-2,8-diazaspiro[4.5]dec-2-en-3-yl)benzamido)benzo[d] [1,3]dioxole-5-carboxamide]
0.161 µM | COc1ccc(-c2nc(N3CCOCC3)no2)cc1C(=O)Nc1cc2c(cc1C(=O)Nc1ccc(F)c(C(F)(F)F)c1)OC(F)(F)O2 [Example 87, 2,2-difluoro-N-(4-fluoro-3-(trifluoromethyl)phenyl)-6-(2-methoxy-5-(3-morpholino-1,2,4-oxadiazol-5-yl)benzamido)benzo[d] [1,3]dioxole-5-carboxamide]
0.16 µM | COc1ccc(C2=NOC(C(C)(C)O)C2)cc1C(=O)Nc1cc2nc(C)sc2cc1C(=O)Nc1ccc(F)c(C(F)(F)F)c1 (stereo not drawn) [Example 11, N-(4-fluoro-3-(trifluorometh-yl)phenyl)-5-(5-(5-(2-hydroxypro-pan-2-yl)-4,5-dihydroisox-azol-3-yl)-2-methoxybenz-amido)-2-methylbenzo [d]thiazole-6-carboxamide]
0.13 µM | COc1ccc(C2=NOC3C4CCC(C4)C23)cc1C(=O)Nc1cc2nc(C)sc2cc1C(=O)Nc1ccc(F)c(C(F)(F)F)c1 (stereo not drawn) [Example 10, N-(4-fluoro-3-(trifluorometh-yl)phenyl)-5-(5-(3a,4,5,6,7,7a-hexahydro-4,7-methano-benzo[d]isox-azol-3-yl)-2-methoxybenz-amido)-2-methylbenzo [d]thiazole-6-carboxamide]
0.046 µM | COc1ccc(-c2cc([C@H](OC(=O)NC3CCC3)C(F)(F)F)ccc2F)cc1C(=O)Nc1cc2sc(C)nc2cc1C(=O)Nc1ccc(F)c(C(F)(F)F)c1 [Example 16, (S)-2,2,2-trifluoro-1-(6-fluoro-3′-((5-((4-fluoro-3-(trifluorometh-yl)phenyl)car-bamoyl)-2-methylbenzo [d]thiazol-6-yl)carbamoyl)-4′-methoxy-[1,1′-biphen-yl]-3-ylethylcyclobutylcar-bamate]
0.041 µM | COc1ccc(C#CCO)cc1C(=O)Nc1cc2c(cc1C(=O)Nc1ccc(F)c(C(F)(F)F)c1)OC(F)(F)O2 [Example 59, 2,2-difluoro-N-(4-fluoro-3-(trifluoromethyl)phenyl)-6-(5-(3-hydroxyprop-1-yn-1-yl)-2-methoxybenzamido) benzo[d][1,3]dioxole-5-carboxamide]
0.006 µM | COc1ccc(C(=O)NCC2(S(C)(=O)=O)CC2)cc1C(=O)Nc1cc2c(cc1C(=O)Nc1ccc(F)c(C(F)(F)F)c1)OC(F)(F)O2 [Example 35, N3-(2,2-difluoro-6-((4-fluoro-3-(trifluoromethyl)phenyl)carbamoyl)benzo[d][1,3]dioxol-5-yl)-4-methoxy-N1-((1-(methylsulfonyl)cyclopropyl)methyl)isophthalamide]
